Test results taken from patent publication US5597899A, “Tumor necrosis factor muteins” (Hoffmann-La Roche Inc., priority 1993, dated 1997).

Experiments:
[1] = tested on: human TNFR-p55; test: Solid phase radioligand competition binding assay, E. coli lysates, TNFR-p55; conditions: for Dilution of E. coli Lysate for 50% Inhibition of 125I-TNFα Binding (ID50) TNFR-p55: 10-fold serial dilutions 10^-2 to 10^-7, < = inhibition but below 50% at 1:100, << = no measurable inhibition at 1:100; for ID50 TNFR-p55 / ID50 TNFR-p75: ratio = 1 no receptor selectivity, > 1 TNFR-p55 selectivity, < 1 TNFR-p75 selectivity
[2] = tested on: human TNFR-p75; test: Solid phase radioligand competition binding assay, E. coli lysates, TNFR-p75; conditions: 10-fold serial dilutions 10^-2 to 10^-7, < = inhibition but below 50% at 1:100, << = no measurable inhibition at 1:100
[3] = tested on: human TNFR-p55; test: Competitive binding of purified muteins to recombinant human TNFR-p55; conditions: for Decrease in Binding Affinity with Respect to Wildtype TNFR-p55: IC50 of mutein divided by IC50 of wildtype TNFα; for Mutein Concentration for 50% Inhibition of 125I-TNFα Binding (IC50) TNFR-p55: purified protein, 10 ng/ml 125I-TNFα, > = competition but below 50% at 100 μg/ml, >> = no measurable competition at 100 μg/ml
Experimental: (§1) The cells were disrupted in a French press at a pressure of 20'000 psi or by sonication in a Branson Sonifier (Model 450, 2×2minat maximal output, on ice). […] Proteins were eluted with a linear NaCl gradient (0 to 400 mM in 20 mM Tris pH 9.0) at a flow rate of 1 ml/min. 5 ml fractions were collected and analyzed for the presence of TNFα muteins by SDS-PAGE. Positive fractions were pooled, dialyzed against 20 mM 2-morpholino-ethanesulfonic acid (MES) pH 6.0 and applied to a MonoS column (HR 5/5, LKB-Pharmacia) equilibrated in 20 mM MES pH 6.0. Proteins were eluted with a linear NaCl gradient (0 to 400 mM in 20 mM MES pH 6.0) at a flow rate of 0.5 ml/min. […] After dialysis against PBS the protein concentration was determined by the BCA Protein Assay (Pierce Chemical Company) using wild-type human TNFα as a standard or by absorbance measurements at 280 nm.
(§2) TNFα was labelled by the Iodogen method (Pierce Chemical Company) to a specific activity of about 10-30 μCi/μg. The volume was 100 μl/well and each concentration was assayed in duplicate or triplicate. After three hours at room temperature the wells were thoroughly washed with PBS and counted in a γ-counter.

[4] = tested on: human TNFR-p75; test: Competitive binding of purified muteins to recombinant human TNFR-p75; conditions: for Decrease in Binding Affinity with Respect to Wildtype TNFR-p75: IC50 of mutein divided by IC50 of wildtype TNFα; for Mutein Concentration for 50% Inhibition of 125I-TNFα Binding (IC50) TNFR-p75: purified protein, 10 ng/ml 125I-TNFα
Experimental: as §1, §2

Row | Substance | Dilution of E. coli Lysate for 50% Inhibition of 125I-TNFα Binding (ID50) TNFR-p55 [1] | ID50 TNFR-p55 / ID50 TNFR-p75 [1] | Dilution of E. coli Lysate for 50% Inhibition of 125I-TNFα Binding (ID50) TNFR-p75 [2] | Decrease in Binding Affinity with Respect to Wildtype TNFR-p55 [3] | Mutein Concentration for 50% Inhibition of 125I-TNFα Binding (IC50) TNFR-p55 [3] | Decrease in Binding Affinity with Respect to Wildtype TNFR-p75 [4] | Mutein Concentration for 50% Inhibition of 125I-TNFα Binding (IC50) TNFR-p75 [4]
1 | A145W: human TNFα mutein A145W | < 100 fold | < 1 | < 100 fold | 250 fold | 10,000 ng/ml | 2.5 fold | 0.1 µg/mL
2 | D143N-A145R: human TNFα mutein D143N-A145R (Example I) | < 100 fold | < 0.8 | 125 fold | > 2,500 fold | > 100,000 ng/ml | 6.7 fold | 0.3 µg/mL
3 | D143N: human TNFα mutein D143N | < 100 fold | < 0.3 | 330 fold | > 2,500 fold | > 100,000 ng/ml | 6.7 fold | 0.3 µg/mL
4 | D143Y: human TNFα mutein D143Y | < 100 fold | < 0.08 | 1,330 fold | > 6,660 fold | > 100,000 ng/ml | 17.5 fold | 0.35 µg/mL
